Tests used:
Assay in all cases: Eurofins kinase profiling
Format in all cases: biochemical
IR(h), activated = target: T1, IR(h), activated (Homo sapiens, UniProt P06213); conditions: 1 µM
T1 construct: purchased Eurofins KinaseProfiler
In short: (§1)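 Each kinase is incubated with compound (1 µM). Activity is then determined radiometrically from transfer of labeled phosphate.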

Axl(h) = target: T2, Axl(h) (Homo sapiens, UniProt P30530); conditions: read-out: residual kinase activity Axl(h)
T2 construct: purchased Eurofins KinaseProfiler
T2 sequence (P30530 26-894): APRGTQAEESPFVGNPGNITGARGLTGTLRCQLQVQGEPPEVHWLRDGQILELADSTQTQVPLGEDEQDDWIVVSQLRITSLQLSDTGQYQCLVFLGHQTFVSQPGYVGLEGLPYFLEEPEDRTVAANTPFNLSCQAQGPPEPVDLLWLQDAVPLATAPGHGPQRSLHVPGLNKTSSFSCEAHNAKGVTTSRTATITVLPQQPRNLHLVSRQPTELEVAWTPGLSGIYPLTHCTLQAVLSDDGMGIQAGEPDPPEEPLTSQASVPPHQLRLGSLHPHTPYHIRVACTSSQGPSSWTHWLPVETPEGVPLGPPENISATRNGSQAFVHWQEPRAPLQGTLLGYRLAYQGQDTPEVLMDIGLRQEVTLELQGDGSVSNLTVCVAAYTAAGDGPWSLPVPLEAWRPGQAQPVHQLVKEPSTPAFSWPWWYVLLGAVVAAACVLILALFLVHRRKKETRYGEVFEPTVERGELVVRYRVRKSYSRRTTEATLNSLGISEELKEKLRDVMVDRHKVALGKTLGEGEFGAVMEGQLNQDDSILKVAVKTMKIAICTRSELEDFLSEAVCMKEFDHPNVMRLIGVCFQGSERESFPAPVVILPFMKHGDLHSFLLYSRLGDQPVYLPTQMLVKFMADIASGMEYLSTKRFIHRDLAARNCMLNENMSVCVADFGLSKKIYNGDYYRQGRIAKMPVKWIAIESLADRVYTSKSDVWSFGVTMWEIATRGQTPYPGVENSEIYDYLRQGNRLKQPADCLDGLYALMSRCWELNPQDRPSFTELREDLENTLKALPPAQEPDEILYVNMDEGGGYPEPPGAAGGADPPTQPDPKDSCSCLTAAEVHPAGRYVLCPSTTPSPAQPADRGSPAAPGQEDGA
In short: as §1

CDK5/p35(h) = target: T3, CDK5/p35(h) (Homo sapiens, UniProt Q00535); conditions: read-out: residual kinase activity CDK5/p35(h)
T3 construct: purchased Eurofins KinaseProfiler
T3 sequence (Q00535 whole entry): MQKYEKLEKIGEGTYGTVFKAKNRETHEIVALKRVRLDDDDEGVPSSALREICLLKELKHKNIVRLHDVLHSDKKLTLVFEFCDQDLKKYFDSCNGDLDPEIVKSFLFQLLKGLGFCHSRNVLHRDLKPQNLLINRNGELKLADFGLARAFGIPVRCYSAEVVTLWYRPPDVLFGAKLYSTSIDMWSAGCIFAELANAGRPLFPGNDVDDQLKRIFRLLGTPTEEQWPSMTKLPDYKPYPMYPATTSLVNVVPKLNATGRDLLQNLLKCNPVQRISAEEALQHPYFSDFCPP
T3 sequence (Q15078 whole entry partner): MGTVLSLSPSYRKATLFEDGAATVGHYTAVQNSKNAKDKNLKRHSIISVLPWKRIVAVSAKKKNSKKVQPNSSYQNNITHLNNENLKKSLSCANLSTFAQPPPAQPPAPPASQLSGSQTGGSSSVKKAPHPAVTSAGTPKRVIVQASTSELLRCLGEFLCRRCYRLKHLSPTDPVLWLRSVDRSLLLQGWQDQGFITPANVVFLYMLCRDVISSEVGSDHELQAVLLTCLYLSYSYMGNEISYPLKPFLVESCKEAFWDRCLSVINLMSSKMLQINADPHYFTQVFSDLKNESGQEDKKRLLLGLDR
In short: as §1

Ron(h) = target: T4, Ron(h) (Homo sapiens, UniProt Q04912); conditions: read-out: residual kinase activity Ron(h)
T4 construct: purchased Eurofins KinaseProfiler
T4 sequence (Q04912 25-1400): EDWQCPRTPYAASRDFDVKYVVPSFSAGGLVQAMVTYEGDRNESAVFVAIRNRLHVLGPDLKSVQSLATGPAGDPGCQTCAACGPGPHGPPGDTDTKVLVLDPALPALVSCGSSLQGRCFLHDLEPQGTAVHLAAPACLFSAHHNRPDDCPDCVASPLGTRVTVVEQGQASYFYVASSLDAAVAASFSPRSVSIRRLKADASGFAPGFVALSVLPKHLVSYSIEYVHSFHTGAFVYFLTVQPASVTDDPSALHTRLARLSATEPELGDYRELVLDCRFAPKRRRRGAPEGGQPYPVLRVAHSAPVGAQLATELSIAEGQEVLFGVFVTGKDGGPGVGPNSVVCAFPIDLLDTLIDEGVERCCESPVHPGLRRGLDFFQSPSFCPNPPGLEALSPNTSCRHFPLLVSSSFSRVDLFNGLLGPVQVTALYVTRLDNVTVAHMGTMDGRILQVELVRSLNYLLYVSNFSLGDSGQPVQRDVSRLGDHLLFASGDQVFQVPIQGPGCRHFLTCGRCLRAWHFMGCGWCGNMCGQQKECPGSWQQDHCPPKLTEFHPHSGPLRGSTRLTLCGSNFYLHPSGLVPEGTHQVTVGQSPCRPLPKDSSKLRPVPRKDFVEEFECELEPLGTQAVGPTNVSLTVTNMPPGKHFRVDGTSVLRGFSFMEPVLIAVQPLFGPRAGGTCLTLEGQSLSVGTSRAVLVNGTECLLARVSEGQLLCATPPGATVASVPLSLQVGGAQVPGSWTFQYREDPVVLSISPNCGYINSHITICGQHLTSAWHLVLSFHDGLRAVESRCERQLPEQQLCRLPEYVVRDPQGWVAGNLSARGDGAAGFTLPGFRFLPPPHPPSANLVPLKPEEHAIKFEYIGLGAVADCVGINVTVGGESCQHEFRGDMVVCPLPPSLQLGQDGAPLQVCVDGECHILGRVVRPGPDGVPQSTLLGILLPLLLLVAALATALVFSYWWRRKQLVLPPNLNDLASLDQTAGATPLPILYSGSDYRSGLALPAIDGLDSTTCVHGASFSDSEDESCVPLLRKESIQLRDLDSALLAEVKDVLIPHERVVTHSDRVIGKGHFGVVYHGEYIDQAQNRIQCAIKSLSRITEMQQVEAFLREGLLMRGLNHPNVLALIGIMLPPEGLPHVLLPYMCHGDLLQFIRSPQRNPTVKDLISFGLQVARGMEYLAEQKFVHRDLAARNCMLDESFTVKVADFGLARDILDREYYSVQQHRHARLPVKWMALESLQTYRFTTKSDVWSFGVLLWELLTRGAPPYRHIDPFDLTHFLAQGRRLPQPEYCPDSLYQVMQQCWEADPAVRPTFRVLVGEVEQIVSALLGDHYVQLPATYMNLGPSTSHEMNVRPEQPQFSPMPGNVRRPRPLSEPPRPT
In short: as §1

CDK1/cyclinB(h) = target: T5, CDK1/cyclinB(h) (Homo sapiens, UniProt P06493); conditions: read-out: residual kinase activity CDK1/cyclinB(h)
T5 construct: purchased Eurofins KinaseProfiler
T5 sequence (P06493 whole entry): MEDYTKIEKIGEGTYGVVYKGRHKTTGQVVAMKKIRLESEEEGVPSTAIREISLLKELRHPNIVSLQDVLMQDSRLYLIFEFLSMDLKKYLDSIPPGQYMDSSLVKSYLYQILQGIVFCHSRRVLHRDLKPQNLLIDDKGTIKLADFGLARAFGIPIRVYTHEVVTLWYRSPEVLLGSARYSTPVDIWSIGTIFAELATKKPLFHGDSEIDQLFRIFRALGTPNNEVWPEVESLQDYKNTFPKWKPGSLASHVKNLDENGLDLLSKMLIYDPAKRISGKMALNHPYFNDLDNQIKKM
T5 sequence (P14635 whole entry partner): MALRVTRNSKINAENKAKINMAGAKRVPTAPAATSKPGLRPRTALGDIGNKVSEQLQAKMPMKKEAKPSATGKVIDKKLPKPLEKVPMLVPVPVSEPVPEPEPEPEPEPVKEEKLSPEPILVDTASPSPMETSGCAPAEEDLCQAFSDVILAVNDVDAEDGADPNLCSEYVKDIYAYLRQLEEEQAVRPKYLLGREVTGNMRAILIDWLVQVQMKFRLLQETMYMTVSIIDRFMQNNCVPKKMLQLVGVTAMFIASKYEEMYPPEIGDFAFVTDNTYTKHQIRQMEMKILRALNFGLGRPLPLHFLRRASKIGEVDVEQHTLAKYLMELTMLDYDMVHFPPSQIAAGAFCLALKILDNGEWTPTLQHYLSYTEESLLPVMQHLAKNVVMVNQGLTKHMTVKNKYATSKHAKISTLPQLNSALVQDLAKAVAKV
In short: as §1

[1] = target: T6, PI3 Kinase (p110d/p85a)(h) (Homo sapiens, UniProt O00329); conditions: read-out: residual kinase activity PI3 Kinase (p110d/p85a)(h)
T6 construct: purchased Eurofins KinaseProfiler
T6 sequence (O00329 whole entry): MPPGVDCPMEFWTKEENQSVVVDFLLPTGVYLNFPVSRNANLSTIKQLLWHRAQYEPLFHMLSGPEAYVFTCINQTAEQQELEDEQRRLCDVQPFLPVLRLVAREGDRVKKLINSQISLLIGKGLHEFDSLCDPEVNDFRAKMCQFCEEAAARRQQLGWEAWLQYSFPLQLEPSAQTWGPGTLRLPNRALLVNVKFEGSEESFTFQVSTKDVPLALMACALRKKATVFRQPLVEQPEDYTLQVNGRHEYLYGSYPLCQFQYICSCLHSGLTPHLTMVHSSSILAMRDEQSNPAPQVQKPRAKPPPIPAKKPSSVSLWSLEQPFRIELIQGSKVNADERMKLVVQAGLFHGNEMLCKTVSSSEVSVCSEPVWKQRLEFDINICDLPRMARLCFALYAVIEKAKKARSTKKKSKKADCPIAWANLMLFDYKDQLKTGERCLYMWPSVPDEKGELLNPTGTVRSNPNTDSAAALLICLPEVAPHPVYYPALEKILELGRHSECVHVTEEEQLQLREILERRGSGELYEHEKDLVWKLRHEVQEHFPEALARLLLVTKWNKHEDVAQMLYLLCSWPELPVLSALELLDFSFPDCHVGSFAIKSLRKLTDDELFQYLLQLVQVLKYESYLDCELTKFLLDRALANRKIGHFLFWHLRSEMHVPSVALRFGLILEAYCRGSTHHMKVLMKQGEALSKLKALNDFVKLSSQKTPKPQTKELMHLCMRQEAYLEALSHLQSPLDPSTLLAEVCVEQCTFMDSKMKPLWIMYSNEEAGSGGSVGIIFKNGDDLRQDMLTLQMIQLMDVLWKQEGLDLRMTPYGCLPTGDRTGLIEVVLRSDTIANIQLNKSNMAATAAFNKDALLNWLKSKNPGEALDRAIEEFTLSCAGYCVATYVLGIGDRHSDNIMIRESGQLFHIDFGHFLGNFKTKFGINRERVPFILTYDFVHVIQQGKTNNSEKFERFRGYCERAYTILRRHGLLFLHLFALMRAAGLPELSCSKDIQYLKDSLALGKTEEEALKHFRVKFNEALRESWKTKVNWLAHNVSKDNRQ
T6 sequence (P27986 whole entry partner): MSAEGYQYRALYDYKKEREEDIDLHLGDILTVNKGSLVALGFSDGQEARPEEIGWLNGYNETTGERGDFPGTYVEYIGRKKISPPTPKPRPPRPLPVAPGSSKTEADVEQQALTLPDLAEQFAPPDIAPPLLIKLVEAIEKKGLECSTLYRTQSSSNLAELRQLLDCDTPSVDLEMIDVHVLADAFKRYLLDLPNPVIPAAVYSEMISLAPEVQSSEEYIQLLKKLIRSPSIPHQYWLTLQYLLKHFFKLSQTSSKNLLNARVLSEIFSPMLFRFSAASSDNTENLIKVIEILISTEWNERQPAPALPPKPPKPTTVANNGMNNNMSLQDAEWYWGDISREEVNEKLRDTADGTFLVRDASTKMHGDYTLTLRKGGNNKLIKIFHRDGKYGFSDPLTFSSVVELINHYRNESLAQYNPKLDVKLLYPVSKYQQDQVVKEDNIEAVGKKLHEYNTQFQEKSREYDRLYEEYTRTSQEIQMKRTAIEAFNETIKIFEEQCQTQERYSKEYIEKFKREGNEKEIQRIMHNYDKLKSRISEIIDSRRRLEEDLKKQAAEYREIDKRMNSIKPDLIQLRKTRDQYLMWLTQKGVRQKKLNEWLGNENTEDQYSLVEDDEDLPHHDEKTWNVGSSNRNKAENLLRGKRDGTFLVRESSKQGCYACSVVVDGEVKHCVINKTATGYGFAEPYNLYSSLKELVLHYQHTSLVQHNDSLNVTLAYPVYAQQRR
In short: as §1

CHK2(h) = target: T7, CHK2(h) (Homo sapiens, UniProt O96017); conditions: read-out: residual kinase activity CHK2(h)
T7 construct: purchased Eurofins KinaseProfiler
In short: as §1

ErbB2(h) = target: T8, ErbB2(h) (Homo sapiens, UniProt P04626); conditions: read-out: residual kinase activity ErbB2(h)
T8 construct: purchased Eurofins KinaseProfiler
In short: as §1

IKKε(h) = target: T9, IKKε(h) (Homo sapiens, UniProt Q14164); conditions: read-out: residual kinase activity IKKε(h)
T9 construct: purchased Eurofins KinaseProfiler
T9 sequence (Q14164 1-716): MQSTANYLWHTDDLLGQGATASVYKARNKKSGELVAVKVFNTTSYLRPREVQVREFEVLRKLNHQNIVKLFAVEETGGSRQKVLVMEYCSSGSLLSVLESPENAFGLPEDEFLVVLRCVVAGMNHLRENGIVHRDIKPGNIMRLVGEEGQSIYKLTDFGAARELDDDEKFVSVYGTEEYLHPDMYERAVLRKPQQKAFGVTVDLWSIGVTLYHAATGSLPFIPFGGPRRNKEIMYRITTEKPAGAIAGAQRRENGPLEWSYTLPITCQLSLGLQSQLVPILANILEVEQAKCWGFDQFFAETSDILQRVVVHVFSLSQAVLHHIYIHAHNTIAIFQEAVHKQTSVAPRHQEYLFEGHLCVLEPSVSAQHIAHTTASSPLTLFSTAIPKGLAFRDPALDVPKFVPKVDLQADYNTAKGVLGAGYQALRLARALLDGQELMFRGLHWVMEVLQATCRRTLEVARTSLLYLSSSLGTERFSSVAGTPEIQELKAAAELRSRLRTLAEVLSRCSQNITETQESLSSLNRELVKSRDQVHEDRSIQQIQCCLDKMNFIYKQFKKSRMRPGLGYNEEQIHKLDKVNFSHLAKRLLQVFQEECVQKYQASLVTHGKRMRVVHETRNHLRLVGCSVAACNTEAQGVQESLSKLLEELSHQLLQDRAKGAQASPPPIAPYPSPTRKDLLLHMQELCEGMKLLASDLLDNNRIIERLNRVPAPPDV
In short: as §1

PAK4(h) = target: T10, PAK4(h) (Homo sapiens, UniProt O96013); conditions: read-out: residual kinase activity PAK4(h)
T10 construct: purchased Eurofins KinaseProfiler
In short: as §1

PKBα(h) = target: T11, PKBα(h) (Homo sapiens, UniProt P31749); conditions: read-out: residual kinase activity PKBα(h)
T11 construct: purchased Eurofins KinaseProfiler
In short: as §1

Pim-1(h) = target: T12, Pim-1(h) (Homo sapiens, UniProt P11309); conditions: read-out: residual kinase activity Pim-1(h)
T12 construct: purchased Eurofins KinaseProfiler
In short: as §1

Blk(h) = target: T13, Blk(h) (Homo sapiens, UniProt P51451); conditions: read-out: residual kinase activity Blk(h)
T13 construct: purchased Eurofins KinaseProfiler
T13 sequence (P51451 whole entry): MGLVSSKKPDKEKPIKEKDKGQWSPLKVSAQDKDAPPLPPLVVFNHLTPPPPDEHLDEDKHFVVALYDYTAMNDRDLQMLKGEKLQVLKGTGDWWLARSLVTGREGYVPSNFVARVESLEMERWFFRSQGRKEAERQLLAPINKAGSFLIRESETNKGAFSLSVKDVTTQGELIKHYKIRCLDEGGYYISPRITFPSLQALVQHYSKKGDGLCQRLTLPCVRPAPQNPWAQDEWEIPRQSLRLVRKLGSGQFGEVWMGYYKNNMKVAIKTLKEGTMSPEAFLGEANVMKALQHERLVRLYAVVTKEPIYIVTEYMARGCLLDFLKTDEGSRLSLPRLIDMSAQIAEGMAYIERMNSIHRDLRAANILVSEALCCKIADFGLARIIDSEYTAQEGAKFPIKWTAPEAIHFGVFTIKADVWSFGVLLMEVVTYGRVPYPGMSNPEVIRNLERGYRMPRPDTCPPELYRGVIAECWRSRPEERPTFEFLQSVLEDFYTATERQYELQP
In short: as §1

| Structure (SMILES) | residual kinase activity IR(h), activated (IR(h), activated) | remaining activity at 1 µM (Axl(h)) [%] | remaining activity at 1 µM (CDK5/p35(h)) [%] | remaining activity at 1 µM (Ron(h)) [%] | remaining activity at 1 µM (CDK1/cyclinB(h)) [%] | remaining activity at 1 µM [1] [%] | remaining activity at 1 µM (CHK2(h)) [%] | remaining activity at 1 µM (ErbB2(h)) [%] | remaining activity at 1 µM (IKKε(h)) [%] | remaining activity at 1 µM (PAK4(h)) [%] | remaining activity at 1 µM (PKBα(h)) [%] | remaining activity at 1 µM (Pim-1(h)) [%] | remaining activity at 1 µM (Blk(h)) [%] |
| --- | --- | --- | --- | --- | --- | --- | --- | --- | --- | --- | --- | --- | --- |
| CNC(=O)c1ccc(Nc2ncc(C(F)(F)F)c(NCc3nccnc3N(C)S(C)(=O)=O)n2)cc1 [VS-6063, Defactinib] | 30 | 57 | 10 | 72 | 14 | 88 | 71 | 122 | 88 | 42 | 101 | 86 | 62 |
| CONC(=O)c1ccccc1Nc1cc(Nc2cc(C)nn2C(C)C)ncc1Cl [GSK2256098] | 76 | 84 | 94 | 91 | 97 | 115 | 59 | 94 | 102 | 93 | 105 | 87 | 117 |
| CNC(=O)c1cccc(C)c1Nc1nc(Nc2ccc(N3CCN(C4C5CC6CC4CC(O)(C6)C5)CC3)cc2OC)ncc1C(F)(F)F (stereo not drawn) [SJP1602, 2-((2-((4-(4-((2s,5r)-5-hydroxyadamantan-2-yl)piperazin-1-yl)-2-methoxyphenyl)amino)-5-(trifluoromethyl)pyrimidin-4-yl)amino)-N,3-dimethylbenzamide] | 61 | 105 | 84 | 75 | 88 | 91 | 51 | 113 | 103 | 85 | 100 | 87 | 85 |

Source: article PMC10528299, “Targeting FAK/PYK2 with SJP1602 for Anti-Tumor Activity in Triple-Negative Breast Cancer” (Current Issues in Molecular Biology, 2023)
